Results published in patent US9920014B2, “Selective inhibition of bacterial topoisomerase I” (THE FLORIDA INTERNATIONAL BOARD OF TRUSTEES MODESTO A. …, priority 2013, dated 2018).
Converted amounts (≈) assume the structure as drawn. “And” between values parts separate entries of the source, which are not always exact repeats. Equal entries are not always repeated.

How the values were obtained:
[1] = biological target: T1, human DNA topoisomerase I (Homo sapiens, UniProt P11387); experiment: Inhibition assay against human DNA topoisomerase I (plasmid relaxation, agarose gel); format: biochemical; settings: for supercoiled DNA template prevented from relaxation by human DNA topoisomerase I: 50 μM compound; for IC50: 2 units enzyme, supercoiled pBAD-GFPuv, 30 min 37° C., read-out: IC50 hTopo I
T1 sequence (P11387 1-765): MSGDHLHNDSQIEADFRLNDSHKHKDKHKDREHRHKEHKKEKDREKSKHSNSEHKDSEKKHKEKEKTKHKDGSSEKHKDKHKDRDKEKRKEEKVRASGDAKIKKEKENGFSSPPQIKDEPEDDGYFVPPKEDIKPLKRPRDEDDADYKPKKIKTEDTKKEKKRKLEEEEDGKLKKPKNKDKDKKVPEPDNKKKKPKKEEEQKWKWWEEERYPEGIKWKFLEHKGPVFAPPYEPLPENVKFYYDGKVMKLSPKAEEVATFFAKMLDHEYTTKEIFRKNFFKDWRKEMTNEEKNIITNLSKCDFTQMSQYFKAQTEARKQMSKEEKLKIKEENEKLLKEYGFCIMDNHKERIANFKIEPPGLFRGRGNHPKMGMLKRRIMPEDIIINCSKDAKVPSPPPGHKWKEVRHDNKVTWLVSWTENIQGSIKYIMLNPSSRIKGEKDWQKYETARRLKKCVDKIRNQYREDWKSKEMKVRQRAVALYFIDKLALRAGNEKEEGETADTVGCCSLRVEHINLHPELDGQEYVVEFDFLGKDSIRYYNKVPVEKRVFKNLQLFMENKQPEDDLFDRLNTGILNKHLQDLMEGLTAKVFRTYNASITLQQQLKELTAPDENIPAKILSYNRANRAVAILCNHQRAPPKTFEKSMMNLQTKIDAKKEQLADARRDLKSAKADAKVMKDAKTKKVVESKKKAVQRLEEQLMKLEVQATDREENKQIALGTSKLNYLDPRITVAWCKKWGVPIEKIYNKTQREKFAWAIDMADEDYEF
Description: Inhibition Assays Against Human DNA Topoisomerase I:
The inhibition assays were used to determine the activities of the newly synthesized compounds against Human DNA topoisomerase I. The reaction mixture (25 μl) contained 20 mM Tris-HCl at pH 7.9, 50 mM KAc, 10 mM Mg(Ac)2, 1 mM DTT, 1 μg/ml BSA, 250 ng of the supercoiled plasmid pBAD-GFPuv, 2 units of Human DNA topoisomerase I, and one of the compounds at a final concentration that ranges from 5 to 50 μM. All components were assembled on ice and incubated for 30 minutes at 37° C. After the incubation, the reactions were terminated by extraction with an equal volume of phenol. The topological state of the DNA samples was analyzed with 1% agarose gel electrophoresis in 1×TAE buffer, pH 7.8. Following electrophoresis, the agarose gel was stained with Ethidium Bromide, destained, and photographed under UV light. The intensity of DNA topoisomers was determined using KODAK 1D Image Analysis Software. The percentage of (−) supercoiled DNA was calculated from a comparison of the intensity of the (−) supercoiled band with the total intensity of all DNA topoisomers. The IC50 was calculated as the amount of the drug for which 50% of the DNA was in a (−) supercoiled state.

dA60.dT60 duplex = experiment: UV thermal denaturation of AT rich DNA duplex; format: binding; settings: ligand 10 μM, DNA 1 μM/duplex, 10 mM sodium cacodylate, 0.1 mM EDTA, 100 mM NaCl, pH 7.0; for ΔTm (thermal stabilization): duplex alone 62.5° C.
Description: Nucleic acids were purchased from Integrated DNA Technologies (Coraville, Iowa). The concentration of the nucleic acid was determined using the extinction coefficient provided by the supplier. The DNA duplex was prepared by heating the dA60 and dT60 in equimolar ratio in buffer 10 mM sodium cacodylate, 0.1 mM EDTA and 100 mM NaCl at pH 7.0 at 95° C. for 15 minutes and then slowly allowing it to cool back to room temperature. After two days of incubation, the duplex formation was checked by UV thermal denaturation experiments. The stock solution was stored at 4° C. and diluted to desired concentrations as required.
Ultra Violet (UV) Thermal Denaturation Experiments:
All UV spectra were obtained on a 12 cell holder Cary 1E UV-Vis spectrophotometer equipped with temperature controller. Quartz cells with 1 cm path length were used for all the experiments. Spectrophotometer stability and wavelength alignment were checked prior to initiation of each thermal denaturation experiment. For all experiments, the samples were prepared by diluting a stock sample. The melting of DNA with and without the ligand was performed at a heating rate of 0.2° C./min. Samples were brought back to 20° C. after the experiment. All UV melting experiments were monitored at 260 nm. For the Tm determinations, derivatives were used. Data points were recorded every 1.0° C. The DNA concentration was 1 μM/duplex while the ligand concentration was 10 μM. All ligand solutions were prepared in dimethyl sulfoxide (DMSO) as concentrated stock solution (6-10 mM) and diluted to desired concentrations in buffer.
Bisbenzimidazoles are known to bind to the minor groove of AT rich DNA. The UV thermal denaturation experiments of the synthesized ligands were carried out with an AT rich DNA duplex. A 60 mer B-DNA duplex that was prepared by mixing equimolar amounts of a 60 mer homoadenine with a 60 mer homothymine polymer.

Escherichia coli K12 = experiment: MIC by microbroth dilution, E. coli K12; format: cell-based; settings: for MIC: Escherichia coli, K12, 24 h 37° C., read-out: MIC S5 = E. coli K 12; for MIC S5 = E. coli K 12: 24 h 37° C.
Description: (§1) Minimum Inhibitory Concentration (MIC) Determination:
(§2) Bacteria used in this study were Staphylococcus aureus ATCC 29213, Escherichia coli ATCC 25922, Escherichia coli K12, Staphylococcus aureus ATCC 33591, Pseudomonas aeruginosa ATCC 27853, and Enterococcus faecalis ATCC 29212. All compounds were tested by the microbroth dilution method following Clinical and Laboratory Standards Institute guidelines. Briefly, Mueller-Hinton broth (Difco Laboratories, Becton Dickinson) was inoculated with each organism and incubated at 37° C. with shaking to establish logarithmic growth. Following incubation, each culture was pelleted by centrifugation (3,500×g for 5 min) and resuspended in 0.85% sterile saline solution to an optical density at 625 nm of 0.1. Samples were tested in triplicate using 96 well microplates (Corning Costar Corp. Cambridge, Mass.), yielding final bacterial concentrations of 5×10^5 CFU/mL, and incubated for 24 h at 37° C. Following incubation, optical densities of each well were determined with a μQuant microplate spectrophotometer (BioTek Instruments, Inc., Winooski, Vt.) at 625 nm.

[2] = tested on: Enterococcus faecalis ATCC 29212; experiment: MIC by microbroth dilution, E. faecalis 29212; format: cell-based; settings: for MIC: Enterococcus faecalis, ATCC29212, read-out: MIC S6 = E. faecalis 29212; for MIC / MIC S6 = E. faecalis 29212: microbroth dilution, 24 h 37° C.; for activity against E. faecalis 29212 (in words): comment on Table 4
Description: as §1, §2

Row | Structure (SMILES) | supercoiled DNA template prevented from relaxation by human DNA topoisomerase I [1] | IC50 [1] | Tm (dA60.dT60 duplex) | ΔTm (thermal stabilization) (dA60.dT60 duplex) | MIC (Escherichia coli K12) | MIC [2] | activity against E. faecalis 29212 (in words) [2] | MIC S5 = E. coli K 12 (Escherichia coli K12) | MIC S6 = E. faecalis 29212 [2] | ΔTm (thermal stabilization) (dA60.dT60 duplex; listed as Hoechst 33242)
1 | C#CCOc1ccc(-c2nc3ccc(-c4nc5ccc(N6CCN(C)CC6)cc5[nH]4)cc3[nH]2)cc1 [DPA 151, 6-(4-methylpiperazin-1-yl)-2′-(4-(prop-2-ynyloxy)phenyl)-1H,3′H-2,5′-bibenzo[d]imidazole] | about 70% | 25.4 ± 2.2 µM | 85.4 °C | 22.9 °C and 23.9 °C | 8 µg/mL (≈ 17.3 µM) | 16 to 32 µg/mL (≈ 34.6 to 69.2 µM) | – | – | – | –
2 | C#CCCCCOc1ccc(-c2nc3ccc(-c4nc5ccc(N6CCN(C)CC6)cc5[nH]4)cc3[nH]2)cc1 [DPA 152, 2′-(4-(hex-5-ynyloxy)phenyl)-6-(4-methylpiperazin-1-yl)-1H,3′H-2,5′-bibenzo[d]imidazole] | – | > 50 µM | 83.4 °C | 20.9 °C | 8 to 16 µg/mL (≈ 15.9 to 31.7 µM) | 4 µg/mL (≈ 7.93 µM) | markedly improved activity | – | – | –
3 | C#CCCCCCCCCCOc1ccc(-c2nc3ccc(-c4nc5ccc(N6CCN(C)CC6)cc5[nH]4)cc3[nH]2)cc1 [DPA 153, 6-(4-methylpiperazin-1-yl)-2′-(4-(undec-10-ynyloxy)phenyl)-1H,3′H-2,5′-bibenzo[d]imidazole] | – | > 50 µM | 70.5 °C | 8 °C | 8 to 16 µg/mL (≈ 13.9 to 27.8 µM) | 16 to 32 µg/mL (≈ 27.8 to 55.7 µM) | – | – | – | –
4 | C#CCOCCCCOc1ccc(-c2nc3ccc(-c4nc5ccc(N6CCN(C)CC6)cc5[nH]4)cc3[nH]2)cc1 [DPA 154, 6-(4-methylpiperazin-1-yl)-2′-(4-(4-(prop-2-ynyloxy)butoxy)phenyl)-1H,3′H-2,5′-bibenzo[d]imidazole] | – | > 50 µM | 85.9 °C | 23.4 °C | 8 to 16 µg/mL (≈ 15 to 29.9 µM) | – | markedly improved activity | – | – | –
5 | CN1CCN(c2ccc3[nH]c(-c4ccc5[nH]c(-c6ccc(O)cc6)nc5c4)nc3c2)CC1 [Hoechst 33258, reference compound] | about 70% | 22.9 ± 1.55 µM | 87.1 °C | ~24 °C and 24.6 °C | – | – | not good inhibitors | 16 µg/mL (≈ 37.7 µM) | 16 to 32 µg/mL | –
6 | CCOc1ccc(-c2nc3ccc(-c4nc5ccc(N6CCN(C)CC6)cc5[nH]4)cc3[nH]2)cc1 [Hoechst 33342, reference compound] | – | > 50 µM | 86.6 °C | ~24 °C | – | – | not good inhibitors | 8 µg/mL (≈ 17.7 µM) | 16 to 32 µg/mL | 24.1 °C
